ChEMBL document CHEMBL1201862, “PubChem BioAssay data set” (2004)
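1) Cells in 96-well plates. 2) Compound, 48 h, 5 concentrations. 3) Linear interpolation between surrounding doses. 4) Unreached endpoint = highest concentration. Abbreviation: GI50, concentration required for 50% inhibition of growth.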 The source made the active and inactive calls. No stated cut-off is given here; in the data, active = GI50 up to about 1.1 µM and inactive = higher.

Key:
Experiment in all cases: inhibition of tumour cell growth, NCI panel, 48 h
HCT-116 = system: HCT-116
SNB-75 = system: SNB-75
SNB-19 = system: SNB-19
HCC 2998 = system: HCC 2998
A549 = system: A549
CCRF-CEM = system: CCRF-CEM
IGROV-1 = system: IGROV-1
SR = system: SR
OVCAR-8 = system: OVCAR-8
SK-MEL-5 = system: SK-MEL-5
TK-10 = system: TK-10
ACHN = system: ACHN
EKVX = system: EKVX
SF-295 = system: SF-295
NCI-H226 = system: NCI-H226
UACC-62 = system: UACC-62
HL-60 = system: HL-60
HOP-92 = system: HOP-92
RPMI-8226 = system: RPMI-8226

Row | SMILES | GI50 (HCT-116) | GI50 (SNB-75) | GI50 (SNB-19) | GI50 (HCC 2998) | GI50 (A549) | GI50 (CCRF-CEM) | GI50 (IGROV-1) | GI50 (SR) | GI50 (OVCAR-8) | GI50 (SK-MEL-5) | GI50 (TK-10) | GI50 (ACHN) | GI50 (EKVX) | GI50 (SF-295) | GI50 (NCI-H226) | GI50 (UACC-62) | GI50 (HL-60) | GI50 (HOP-92) | GI50 (RPMI-8226)
1 | O=c1c2ccc3cccc4c(=O)cc(c5ccccc15)-c2c34 | > 100 µM (inactive) | > 100 µM (inactive) | > 100 µM (inactive) | > 100 µM (inactive) | > 100 µM (inactive) | > 100 µM (inactive) | > 100 µM (inactive) | > 100 µM (inactive) | 28.6 µM (inactive) | 57.4 µM (inactive) | > 100 µM (inactive) | > 100 µM (inactive) | > 100 µM (inactive) | > 100 µM (inactive) | > 100 µM (inactive) | > 100 µM (inactive) | 43.9 µM (inactive) |  | 
2 | COc1cc([C@@H]2c3cc4c(cc3[C@@H](NCc3cccc(F)c3)C3COC(=O)[C@@H]32)OCO4)cc(OC)c1O (stereo partly specified) | 4.5 µM (inactive) | 1.95 µM (inactive) | 2.81 µM (inactive) | 9.77 µM (inactive) | 1.17 µM (inactive) | 1.27 µM (inactive) | 3.18 µM (inactive) |  | 6.53 µM (inactive) | 7.13 µM (inactive) | 9.68 µM (inactive) | 1.67 µM (inactive) | 12.4 µM (inactive) | 2.24 µM (inactive) | 1.03 µM (active) | 2.47 µM (inactive) | 1.19 µM (inactive) | 7.53 µM (inactive) | 2.29 µM (inactive)
3 | CCCC1C(=O)C(CC)Cc2c(OC)ccc(OC)c21 (stereo unspecified) |  | > 100 µM (inactive) | > 100 µM (inactive) | > 100 µM (inactive) | > 100 µM (inactive) | > 100 µM (inactive) | > 100 µM (inactive) |  | > 100 µM (inactive) | > 100 µM (inactive) | > 100 µM (inactive) | > 100 µM (inactive) | > 100 µM (inactive) | > 100 µM (inactive) | > 100 µM (inactive) | > 100 µM (inactive) | > 100 µM (inactive) | > 100 µM (inactive) | > 100 µM (inactive)
4 | CC(=O)Oc1cc(OC(C)=O)c2cc3c(cc2c1OC(C)=O)C(=O)C1(CCCC1)C3=O |  | 14.2 µM (inactive) |  | 21.7 µM (inactive) | 19.1 µM (inactive) |  | 17.2 µM (inactive) |  | 16.4 µM (inactive) |  | 17.2 µM (inactive) | 17.7 µM (inactive) | 20 µM (inactive) | 16.3 µM (inactive) |  | 15.8 µM (inactive) | 20.8 µM (inactive) | 15.1 µM (inactive) | 2.29 µM (inactive)
5 | CCOC(=O)c1cnc2c(ccc3ncccc32)c1NCCCN(CC)CC |  |  | 50.1 µM (inactive) | > 100 µM (inactive) | > 100 µM (inactive) | 38.4 µM (inactive) | > 100 µM (inactive) |  |  | > 100 µM (inactive) | > 100 µM (inactive) | > 100 µM (inactive) | > 100 µM (inactive) | 86.7 µM (inactive) | > 100 µM (inactive) | > 100 µM (inactive) | 14.6 µM (inactive) | 65.8 µM (inactive) | 38.2 µM (inactive)
6 | O=C(O)CCC(NC(=O)c1ccccc1)C(=O)O (stereo unspecified) | 58.7 µM (inactive) | > 100 µM (inactive) | > 100 µM (inactive) | > 100 µM (inactive) | > 100 µM (inactive) | > 100 µM (inactive) | > 100 µM (inactive) | > 100 µM (inactive) | > 100 µM (inactive) | > 100 µM (inactive) | > 100 µM (inactive) | > 100 µM (inactive) | > 100 µM (inactive) | > 100 µM (inactive) |  | > 100 µM (inactive) |  | > 100 µM (inactive) | > 100 µM (inactive)
7 | COc1ccc(C23c4ccc(OC)cc4CC2(c2ccc([N+](=O)[O-])cc2)Cc2cc(OC)ccc23)cc1 (stereo unspecified) | > 37.2 µM (inactive) | > 83.6 µM (inactive) | > 71.4 µM (inactive) |  | > 21.2 µM (inactive) | > 40.9 µM (inactive) | > 21.5 µM (inactive) |  | > 36.7 µM (inactive) | > 21.7 µM (inactive) | > 92.5 µM (inactive) | > 39.4 µM (inactive) | > 15.2 µM (inactive) |  | > 57.1 µM (inactive) | > 17.1 µM (inactive) | > 55 µM (inactive) | > 21.9 µM (inactive) | > 27.4 µM (inactive)
8 | COc1nc(NC2OC(COC(C)=O)C(OC(C)=O)C(OC(C)=O)C2OC(C)=O)c2c(OC(C)=O)cc(=O)oc2n1 (stereo unspecified) | > 100 µM (inactive) | > 100 µM (inactive) | > 100 µM (inactive) | > 100 µM (inactive) | > 100 µM (inactive) | > 100 µM (inactive) | > 100 µM (inactive) |  | > 100 µM (inactive) | > 100 µM (inactive) | > 100 µM (inactive) | 12.5 µM (inactive) | > 100 µM (inactive) | > 100 µM (inactive) | > 100 µM (inactive) | > 100 µM (inactive) | > 100 µM (inactive) | > 100 µM (inactive) | > 100 µM (inactive)
